Tested on: T1, A. awamori EM66 exochitinase
T1 construct: native secreted enzyme from culture supernatant of honey isolate, partially purified by ethanol fractionation, free (not immobilised)
Assay: p-nitrophenol release at […] nm, Lineweaver-Burk plot
Assay type: biochemical, Aspergillus awamori
Details: free enzyme, partially purified; acetate buffer pH 5.0; 30 °C; apparent Km

## CC(=O)N[C@H]1[C@H](Oc2ccc([N+](=O)[O-])cc2)O[C@H](CO)[C@@H](O)[C@@H]1O [PNP-β-GlcNAc, p-nitrophenyl-β-D-N-acetyl glucoseaminide]
  Km: 0.33 mg/mL

Source: PMC4711283, “Immobilization of halophilic Aspergillus awamori EM66 exochitinase on grafted k-carrageenan-alginate beads” (3 Biotech, 2016)
